ChEMBL document CHEMBL1141043, “Novel, selective indole-based ECE inhibitors: lead optimization via solid-phase and classical synthesis” (Bioorg Med Chem Lett, 2005)

Target: T1, Endothelin-converting enzyme 1 (Homo sapiens, UniProt P42892)
T1 sequence (P42892 whole entry): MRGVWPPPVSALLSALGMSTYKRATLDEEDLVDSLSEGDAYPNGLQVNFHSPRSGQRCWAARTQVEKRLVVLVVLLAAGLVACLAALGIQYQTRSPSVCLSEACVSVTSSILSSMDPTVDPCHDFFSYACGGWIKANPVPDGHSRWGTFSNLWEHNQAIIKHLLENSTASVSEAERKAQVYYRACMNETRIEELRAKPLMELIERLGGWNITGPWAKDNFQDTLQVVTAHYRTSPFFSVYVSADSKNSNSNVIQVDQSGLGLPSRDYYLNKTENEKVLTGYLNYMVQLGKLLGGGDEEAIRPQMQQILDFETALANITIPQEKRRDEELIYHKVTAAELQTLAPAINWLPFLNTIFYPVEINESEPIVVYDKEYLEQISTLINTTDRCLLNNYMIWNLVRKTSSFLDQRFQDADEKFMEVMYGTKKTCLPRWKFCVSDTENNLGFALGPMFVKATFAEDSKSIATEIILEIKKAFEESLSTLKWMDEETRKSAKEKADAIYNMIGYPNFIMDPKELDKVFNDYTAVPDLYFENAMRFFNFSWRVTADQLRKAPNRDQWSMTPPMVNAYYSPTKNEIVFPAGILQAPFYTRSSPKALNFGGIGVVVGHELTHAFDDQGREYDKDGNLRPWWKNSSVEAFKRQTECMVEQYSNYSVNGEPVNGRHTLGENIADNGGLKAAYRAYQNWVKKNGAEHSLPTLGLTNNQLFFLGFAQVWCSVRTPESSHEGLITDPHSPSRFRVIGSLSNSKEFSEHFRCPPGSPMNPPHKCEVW
Assay: Inhibitory concentration against endothelin converting enzyme 1 using bradykinin-derived substrate

Row | SMILES | IC50 [nM]
1 | CC(C)(C)CC(=O)Nc1ccc2c(c1)cc(CNc1ccccc1)n2Cc1ccccc1F | > 10000
2 | CC(C)(C)CC(=O)Nc1ccc2c(c1)c(C(=O)Nc1ccccc1)cn2Cc1ccccc1F | > 10000
3 | CC(C)(C)CC(=O)Nc1ccc2c(c1)cc(C(=O)Nc1ccn[nH]1)n2Cc1ccccc1F | > 10000
4 | CC(C)(C)CC(=O)Nc1ccc2c(c1)cc(-c1nc(-c3ccccc3)no1)n2Cc1ccccc1F | > 10000

Target: T1, Endothelin-converting enzyme 1
Assay: Inhibitory concentration against endothelin converting enzyme 1 using big-ET-1 substrate in ELISA

Row | SMILES | IC50 [nM]
5 | CC(C)(C)CC(=O)Nc1ccc2c(c1)cc(C(=O)Nc1cccc(C(=O)Nc3ccc(S(C)(=O)=O)cc3)c1)n2Cc1ccccc1F | 120
6 | C[S+]([O-])c1ccc(NC(=O)c2cccc(NC(=O)c3cc4cc(NC(=O)CC(C)(C)C)ccc4n3Cc3ccccc3F)c2)cc1 (stereo not drawn) | 66
7 | CNS(=O)(=O)c1ccc(NC(=O)c2cccc(NC(=O)c3cc4cc(NC(=O)CC(C)(C)C)ccc4n3Cc3ccccc3F)c2)cc1 | 150
8 | CC(C)(C)CC(=O)Nc1ccc2c(c1)cc(C(=O)Nc1cccc(C(=O)Nc3ccc(S(N)(=O)=O)cc3)c1)n2Cc1ccccc1F | 39
